The target in the experiment is T1, ERR1 (also known as ERR-α or ERR-1) (Homo sapiens, UniProt P11474).
T1 sequence (P11474 193-421 limits assumed): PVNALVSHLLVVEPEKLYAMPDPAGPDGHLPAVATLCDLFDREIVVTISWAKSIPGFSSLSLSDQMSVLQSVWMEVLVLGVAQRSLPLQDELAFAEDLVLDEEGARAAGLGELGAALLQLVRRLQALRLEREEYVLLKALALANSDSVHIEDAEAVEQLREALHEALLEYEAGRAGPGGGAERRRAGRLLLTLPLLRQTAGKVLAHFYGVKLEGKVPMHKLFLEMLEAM
Nature of the experiment: TR-FRET assay (disruption of co-activator peptide binding to ERR1 LBD). It is filed as biochemical. To be noted: 6 nM 6His-ERR1LBD, 6 nM GST-SRC-2 peptide; average of 3 independent experiments. An outline of the steps:
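Homogeneous TR-FRET measuring displacement of GST-hSRC2 co-activator peptide (6 nM) from His-tagged ERR1 LBD (6 nM), detected with α-GST Eu cryptate (30 nM) and α-His-XL665 (7.5 nM). Buffer 25 mM Tris pH 8, 2.5 mM Hepes, 20 mM KCl, 1 mM DTT, 0.05 mg/mL delipidated BSA; equilibration 4-18 h at 25° C. Hyperbolic dose-response fit, mean of 3 experiments.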
In general terms: Time-resolved FRET reads energy transfer from a long-lived donor to a nearby acceptor.
Broadly, the EC50 is the midpoint of the concentration-response curve. Low readings indicate an effect from little substance, high ones a need for much substance. In turn, `COc1ccc(Cn2ncc3cc(/C=C4\SC(=O)N(C[C@@H]5CCCN5C)C4=O)ccc32)c(C(F)(F)F)c1` [Compound 23, (5Z)-5-({1-[4-Methoxy-2-(trifluoromethyl)benzyl]-1H-indazol-5-yl}methylidene)-3-{[(2S)-1-methylpyrrolidin-2-yl]methyl}-1,3-thiazolidine-2,4-dione] showed a 50% effective concentration (EC50) of 0.045 µM.
As to `O=C1S/C(=C\c2ccc3c(cnn3Cc3ccc(Cl)cc3C(F)(F)F)c2)C(=O)N1[C@@H]1CCNC[C@H]1O` (relative stereo) [Compound 270, (5Z)-5-({1-[4-Chloro-2-(trifluoromethyl)-benzyl]-1H-indazol-5-yl}methylidene)-3-[trans-3-hydroxypiperidin-4-yl]-1,3-thiazolidine-2,4-dione], the concentration for a half-maximal effect (EC50) was 0.025 µM.
As for `O=C(O)[C@@H](CO)N1C(=O)S/C(=C\c2ccc3c(cnn3Cc3ccc(Cl)cc3C(F)(F)F)c2)C1=O` [Compound 222, (2R)-2-[(5Z)-5-({1-[4-Chloro-2-(trifluoromethyl)benzyl]-1H-indazol-5-yl}methylidene)-2,4-dioxo-1,3-thiazolidin-3-yl]-3-hydroxypropanoic acid], the figure is 0.058 µM; as for `O=C1S/C(=C\c2ccc3c(cnn3Cc3ccc(Cl)cc3C(F)(F)F)c2)C(=O)N1C[C@@H]1C[C@H](O)CN1` (stereo in doubt) [Compound 286, (5Z)-5-({1-[4-Chloro-2-(trifluoromethyl)benzyl]-1H-indazol-5-yl}methylidene)-3-{[(2S,4S)-4-hydroxypyrrolidin-2-yl]methyl}-1,3-thiazolidine-2,4-dione], 0.456 µM; as for `CCN1C[C@@H](N2C(=O)S/C(=C\c3ccc4c(cnn4Cc4ccc(Cl)cc4C(F)(F)F)c3)C2=O)[C@@H](F)C1` (relative stereo) [Compound 324, (5Z)-5-({1-[4-Chloro-2-(trifluoromethyl)benzyl]-1H-indazol-5-yl}methylidene)-3-[cis-1-ethyl-4-fluoropyrrolidin-3-yl]-1,3-thiazolidine-2,4-dione], 0.033 µM.
In turn, `COc1ccc(Cn2ncc3cc(/C=C4\SC(=O)N(CCN5CCCCC5)C4=O)ccc32)c(C(F)(F)F)c1` [Compound 11, (5Z)-5-[(1-{[4-(Methyloxy)-2-(trifluoromethyl)phenyl]methyl}-1H-indazol-5-yl)methylidene]-3-(2-piperidin-1-ylethyl)-1,3-thiazolidine-2,4-dione] gave an EC50 of 0.027 µM.
`O=C1S/C(=C\c2ccc3c(cnn3Cc3ccc(Cl)cc3C(F)(F)F)c2)C(=O)N1CC1CCNCC1` [Compound 130, (5Z)-5-({1-[4-Chloro-2-(trifluoromethyl)benzyl]-1H-indazol-5-yl}methylidene)-3-(piperidin-4-ylmethyl)-1,3-thiazolidine-2,4-dione]: the EC50 amounted to 0.033 µM.
Turning to `CN1CC[C@@H](N2C(=O)S/C(=C\c3ccc4c(cnn4Cc4ccc(C(F)(F)F)cc4C(F)(F)F)c3)C2=O)[C@H](O)C1` (relative stereo) [Compound 276, (5Z)-5-({1-[2,4-Bis(trifluoromethyl)benzyl]-1H-indazol-5-yl}methylidene)-3-[trans-3-hydroxy-l-methylpiperidin-4-yl]-1,3-thiazolidine-2,4-dione], the response was half-maximal at 0.029 µM (EC50). This EC50 and that of the compound before are within 1.5-fold of each other.
For the compound `O=C1S/C(=C\c2ccc3c(cnn3Cc3ccc(Cl)cc3C(F)(F)F)c2)C(=O)N1CC1COS(=O)(=O)N1` (stereo not shown) [Compound 409, (5Z)-5-({1-[4-Chloro-2-(trifluoromethyl)benzyl]-1H-indazol-5-yl}methylidene)-3-[(2,2-dioxido-1,2,3-oxathiazolidin-4-yl)methyl]-1,3-thiazolidine-2,4-dione], the EC50 is greater than 10 µM.
`Cc1nn(Cc2ccc(Cl)cc2C(F)(F)F)c2ccc(/C=C3\SC(=O)N(CC(=O)NS(C)(=O)=O)C3=O)cc12` [Compound 44, 2-[(5Z)-5-({1-[4-Chloro-2-(trifluoromethyl)benzyl]-3-methyl-1H-indazol-5-yl}methylidene)-2,4-dioxo-1,3-thiazolidin-3-yl]-N-(methylsulfonyl)acetamide] gave an EC50 of 0.072 µM. In other words, the double-digit nanomolar range.
Compound `NS(=O)(=O)NCCN1C(=O)S/C(=C\c2ccc3c(cnn3Cc3ccc(Cl)cc3C(F)(F)F)c2)C1=O` [Compound 50, N-{2-[(5Z)-5-({1-[4-Chloro-2-(trifluoromethyl)benzyl]-1H-indazol-5-yl}methylidene)-2,4-dioxo-1,3-thiazolidin-3-yl]ethyl}sulfamide] registered an EC50 of 0.04 µM.
On to `CCOC(=O)CN1C(=O)S/C(=C\c2ccc3c(c2)nnn3Cc2ccc(Cl)cc2C(F)(F)F)C1=O` [Compound 259, Ethyl [(5Z)-5-({1-[4-chloro-2-(trifluoromethyl)benzyl]-1H-benzotriazol-5-yl}methylidene)-2,4-dioxo-1,3-thiazolidin-3-yl]acetate], for which the EC50 came out at 0.022 µM.
The compound `N=C(N)NC(=O)CN1C(=O)S/C(=C\c2ccc3c(cnn3Cc3ccc(Cl)cc3C(F)(F)F)c2)C1=O` [Compound 56, N-Carbamimidoyl-2-[(5Z)-5-({1-[4-chloro-2-(trifluoromethyl)benzyl]-1H-indazol-5-yl}methylidene)-2,4-dioxo-1,3-thiazolidin-3-yl]acetamide] yielded a half-maximal effective concentration (EC50) of 0.022 µM.
The result for `CS(=O)(=O)NN1C(=O)S/C(=C\c2ccc3c(c2)c(F)nn3Cc2ccc(Cl)cc2C(F)(F)F)C1=O` [Compound 368, N-[(5Z)-5-({1-[4-Chloro-2-(trifluoromethyl)benzyl]-3-fluoro-1H-indazol-5-yl}methylidene)-2,4-dioxo-1,3-thiazolidin-3-yl]methanesulfonamide] reads 0.003 µM; that for `COC(=O)CN1C(=O)S/C(=C\c2ccc3c(ccn3Cc3ccc(C(F)(F)F)cc3C(F)(F)F)c2)C1=O` [Compound 238, Methyl {(5Z)-5-[(1-{[2,4-bis(trifluoromethyl)phenyl]methyl}-1H-indol-5-yl)methylidene]-2,4-dioxo-1,3-thiazolidin-3-yl}acetate], 1.8 µM; that for `O=C1S/C(=C\c2ccc3c(cnn3Cc3ccc(C(F)(F)F)cc3C(F)(F)F)c2)C(=O)N1[C@@H]1CCNC[C@H]1F` (relative stereo) [Compound 274, (5Z)-5-({1-[2,4-Bis(trifluoromethyl)benzyl]-1H-indazol-5-yl}methylidene)-3-(trans-3-fluoropiperidin-4-yl)-1,3-thiazolidine-2,4-dione], 0.088 µM.
The compound `O=C(O)[C@@H]1CCC[C@H]1N1C(=O)S/C(=C\c2ccc3c(cnn3Cc3ccc(Cl)cc3C(F)(F)F)c2)C1=O` [Compound 142, (1R,2R)-2-[(5Z)-5-({1-[4-Chloro-2-(trifluoromethyl)benzyl]-1H-indazol-5-yl}methylidene)-2,4-dioxo-1,3-thiazolidin-3-yl]cyclopentanecarboxylic acid] yielded an EC50 of 0.038 µM.
`CN(C)CCN1C(=O)S/C(=C\c2ccc3c(ccn3Cc3ccc(C#N)cc3C(F)(F)F)c2)C1=O` [Compound 246, 4-({5-[(Z)-{3-[2-(Dimethylamino)ethyl]-2,4-dioxo-1,3-thiazolidin-5-ylidene}methyl]-1H-indol-1-yl}methyl)-3-(trifluoromethyl)benzonitrile]: the half-maximal effective concentration (EC50) was determined as 0.5 µM. Against the preceding compound, the EC50 is about 13-fold higher.
In turn, `COc1ccc(Cn2ncc3cc(/C=C4\SC(=O)N(C5CCN(S(N)(=O)=O)CC5)C4=O)ccc32)c(C(F)(F)F)c1` [Compound 32, 4-[(5Z)-5-({1-[4-Methoxy-2-(trifluoromethyl)benzyl]-1H-indazol-5-yl}methylidene)-2,4-dioxo-1,3-thiazolidin-3-yl]piperidine-1-sulfonamide] displayed an EC50 of 0.015 µM.
For the compound `O=C1S/C(=C\c2ccc3c(cnn3Cc3ccc(Cl)cc3C(F)(F)F)c2)C(=O)N1CC(O)CO` (stereo not shown) [Compound 43, (5Z)-5-({1-[4-Chloro-2-(trifluoromethyl)benzyl]-1H-indazol-5-yl}methylidene)-3-(2,3-dihydroxypropyl)-1,3-thiazolidine-2,4-dione], the midpoint of the response, the EC50, lay at 0.016 µM.
In turn, `NC(=O)CN1CCC[C@@H]1CN1C(=O)S/C(=C\c2ccc3c(cnn3Cc3ccc(Cl)cc3C(F)(F)F)c2)C1=O` [Compound 298, 2-[(2R)-2-{[(5Z)-5-({1-[4-Chloro-2-(trifluoromethyl)benzyl]-1H-indazol-5-yl}methylidene)-2,4-dioxo-1,3-thiazolidin-3-yl]methyl}pyrrolidin-1-yl]acetamide] showed an EC50 of 0.049 µM.
Regarding `O=C(O)CN1C(=O)S/C(=C\c2cc3cnn(Cc4ccc(Cl)cc4C(F)(F)F)c3cc2F)C1=O` [Compound 348, [(5Z)-5-({1-[4-Chloro-2-(trifluoromethyl)benzyl]-6-fluoro-1H-indazol-5-yl}methylidene)-2,4-dioxo-1,3-thiazolidin-3-yl]acetic acid], a half-maximal effect (EC50) was put at 0.007 µM.
For the compound `CC(=O)NS(=O)(=O)CN1C(=O)S/C(=C\c2ccc3c(cnn3Cc3ccc(F)cc3C(F)(F)F)c2)C1=O` [Compound 64, N-({[(5Z)-5-({1-[4-Fluoro-2-(trifluoromethyl)benzyl]-1H-indazol-5-yl}methylidene)-2,4-dioxo-1,3-thiazolidin-3-yl)methyl}sulfonyl)acetamide], it took 0.485 µM to reach a half-maximal effect (EC50).
Consider `COc1ccc(Cn2ncc3cc(/C=C4\SC(=O)N(C5CCNCC5)C4=O)ccc32)c(C(F)(F)F)c1` [Compound 26, (5Z)-5-({1-[4-Methoxy-2-(trifluoromethyl)benzyl]-1H-indazol-5-yl}methylidene)-3-piperidin-4-yl-1,3-thiazolidine-2,4-dione], for which the EC50 is 0.067 µM.
`NC1CCCC(N2C(=O)S/C(=C\c3ccc4c(cnn4Cc4ccc(Cl)cc4C(F)(F)F)c3)C2=O)C1` (stereo not shown) [Compound 76, (5Z)-3-(3-Aminocyclohexyl)-5-({1-[4-chloro-2-(trifluoromethyl)benzyl]-1H-indazol-5-yl}methylidene)-1,3-thiazolidine-2,4-dione] yielded an EC50 of 0.014 µM.

Source of the values: US8796256B2 (Janssen Pharmaceutica NV, priority 2010, dated 2014).
